Experimental data taken from patent US7056903B2, “Carboxylic acid derivatives as IP antagonists” (Syntex (U.S.A.) LLC, priority 2000, dated 2006).
Structures can show the parent of a compound that is named as a salt.

SMILES | melting point
O=C(N[C@H](Cc1ccccc1)C(=O)O)OCc1nc2cc(-c3ccccc3)ccc2o1 (as salt: ammonium) [Compound 53, (R)-3-phenyl-2-(5-phenyl-benzoxazol-2-ylmethoxycarbonylamino) propionic acid] | 150.9 to 152.7 °C
COc1ccccc1OCc1ccc(COC(=O)NC(Cc2ccccc2)C(=O)O)cc1 (centres unmarked) [Compound 74, 2-[4-(2-methoxy-phenoxymethyl)-benzyloxycarbonylamino]-3-phenyl propionic acid] | 92.6 to 93.5 °C
O=C(NC(Cc1ccccc1)C(=O)O)OCc1ccc(COCc2ccccc2)cc1 (centres unmarked) [Compound 90, 2-(4-benzyloxymethyl-benzyloxycarbonylamino)-3-phenyl-propionic acid] | 78.3 to 79.9 °C
O=C(NC(Cc1cccc(NS(=O)(=O)c2ccccc2)c1)C(=O)O)OCc1ccc(COc2ccccc2)cc1 (centres unmarked) [Compound 83, 3-(3-benzenesulfonylamino-phenyl)-2-(4-phenoxymethyl-benzyloxycarbonylamino)-propionic acid] | 129.7 to 130.3 °C
O=C(N[C@H](Cc1ccccc1)C(=O)O)OCc1ccc(COc2cccc(NS(=O)(=O)c3ccccc3)c2)cc1 [Compound 78, (R)-2-[4-(3-benzenesulfonylamino-phenoxymethyl)-benzyloxycarbonylamino]-3-phenyl-propionic acid] | 96.6 to 98.6 °C
O=C(NC(Cc1ccccc1)C(=O)O)OCc1ccc(OCc2ccc(F)cc2)cc1 (centres unmarked) [Compound 85, 2-[4-(4-fluoro-benzyloxy)-benzyloxycarbonylamino]-3-phenyl-propionic acid] | 134 to 138 °C
O=C(NC(Cc1ccccc1)C(=O)O)OCc1ccc(OCCc2ccccc2)cc1 (centres unmarked) [Compound 86, 2-(4-phenethyloxy-benzyloxycarbonylamino)-3-phenyl-propionic acid] | 96.9 to 97.4 °C
Cc1ccc(-c2ccc3oc(COC(=O)N[C@H](Cc4ccccc4)C(=O)O)cc3c2)cc1 (hydrate or solvate) [Compound 95, (R)-2-[5-(4-methyl-phenyl)-benzofuran-2-ylmethoxycarbonylamino]-3-phenyl-propionic acid] | 151 to 154 °C
O=C(NC(Cc1ccccc1)C(=O)O)OCc1ccc(COc2ccccc2F)cc1 (centres unmarked) [Compound 75, 2-[4-(2-fluoro-phenoxymethyl)-benzyloxycarbonylamino]-3-phenyl-propionic acid] | 114 to 117 °C
CS(=O)(=O)Nc1cccc(OCc2ccc(COC(=O)N[C@H](Cc3ccccc3)C(=O)O)cc2)c1 [Compound 77, (R)-2-[4-(3-methanesulfonylamino-phenoxymethyl)-benzyloxycarbonylamino]-3-phenyl-propionic acid] | 161.9 to 164.9 °C

Further lines, results first:

melting point | SMILES
151 to 157 °C | O=C(N[C@H](Cc1ccc(Cl)cc1)C(=O)O)OCc1cc2cc(-c3ccccc3)ccc2o1 [Compound 106, (R)-3-(4-chloro-phenyl)-2-(5-phenyl-benzofuran-2-ylmethoxycarbonylamino)-propionic acid]
255.2 to 255.7 °C | O=C(NC(Cc1ccncc1)C(=O)O)OCc1cc2cc(-c3ccc(F)cc3)ccc2o1 (centres unmarked) [Compound 176, 2-[5-(4-fluoro-phenyl)-benzofuran-2-ylmethoxycarbonylamino]-3-pyridin-4-yl-propionic acid]
168 to 169.8 °C | O=C(O)CC(NC(=O)OCc1cc2cc(-c3ccccc3)ccc2o1)c1ccccc1 (centres unmarked) [Compound 109, 3-phenyl-3-(5-phenyl-benzofuran-2-ylmethoxycarbonylamino)-propionic acid]
84 to 87.5 °C | N#Cc1cccc(-c2ccc3oc(COC(=O)N[C@H](Cc4ccc(F)cc4)C(=O)O)cc3c2)c1 (hydrate or solvate) [Compound 112, (R)-2-[5-(3-cyano-phenyl)-benzofuran-2-ylmethoxycarbonylamino]-3-(4-fluoro-phenyl)-propionic acid]
143 to 146 °C | O=C(NC(CNc1ccccc1)C(=O)O)OCc1ccc(-c2ccccc2)cc1 (centres unmarked) [Compound 179, 2-(biphenyl-4-ylmethoxycarbonylamino)-3-phenylamino-propionic acid]
163 to 167 °C | O=C(N[C@H](Cc1ccccc1)C(=O)O)OCc1cc2cc(-c3cc(F)cc(F)c3)ccc2o1 [Compound 99, (R)-2-[5-(3,5-difluoro-phenyl)-benzofuran-2-ylmethoxycarbonylamino]-3-phenyl-propionic acid]
148.3 to 157 °C | O=C(N[C@@H](Cc1ccc(F)cc1)C(=O)O)OCc1cc2cc(-c3ccc(F)cc3)ccc2o1 [Compound 113, (S)-3-(4-fluoro-phenyl)-2-[5-(4-fluoro-phenyl)-benzofuran-2-ylmethoxycarbonylamino]-propionic acid]
165 to 168.5 °C | O=C(NC(Cc1ccccc1)C(=O)O)OCc1ccc(/C=C/c2ccccc2)cc1 (centres unmarked) [Compound 133, 3-phenyl-2-[4-((E)-styryl)-benzyloxycarbonylamino]-propionic acid]
64 to 68.5 °C | N#Cc1cccc(-c2ccc3oc(COC(=O)N[C@H](Cc4ccccc4)C(=O)O)cc3c2)c1 (hydrate or solvate) [Compound 96, (R)-2-[5-(3-cyano-phenyl)-benzofuran-2-ylmethoxycarbonylamino]-3-phenyl-propionic acid]
164 to 169 °C | O=C(NC(Cc1cccnc1)C(=O)O)OCc1cc2cc(-c3ccccc3)ccc2o1 (centres unmarked) [Compound 164, 2-(5-Phenyl-benzofuran-2-ylmethoxycarbonylamino)-3-pyridin-3-yl-propionic acid]
105.2 to 110.2 °C | O=C(N[C@H](Cc1ccc(F)cc1)C(=O)O)OCc1cc2cc(-c3ccccc3F)ccc2o1 [Compound 114, (R)-3-(4-fluoro-phenyl)-2-[5-(2-fluoro-phenyl)-benzofuran-2-ylmethoxycarbonylamino]-propionic acid]
152.6 to 154.8 °C | COc1ccc(NCC(NC(=O)OCc2ccc(-c3ccccc3)cc2)C(=O)O)cc1 (centres unmarked) [Compound 180, 2-(biphenyl-4-ylmethoxycarbonylamino)-3-(4-methoxy-phenylamino)-propionic acid]
215 to 217 °C | Cn1cc(C[C@@H](NC(=O)OCc2ccc(-c3ccccc3)cc2)C(=O)O)c2ccccc2c1=O [Compound 149, (R)-2-(biphenyl-4-ylmethoxycarbonylamino)-3-(2-methyl-1-oxo-1,2-dihydro-isoquinolin-4-yl)-propionic acid]
119 to 121 °C | O=C(NC(Cc1ccccc1)C(=O)O)OCc1cc2cc(-c3ccncc3)ccc2o1 (centres unmarked) [Compound 174, 3-phenyl-2-(5-pyridin-4-yl-benzofuran-2-ylmethoxycarbonylamino)-propionic acid]
97 to 99.1 °C | O=C(N[C@H](Cc1ccc(F)cc1)C(=O)O)OCc1cc2cc(-c3ccc(F)c(F)c3)ccc2o1 [Compound 122, (R)-2-[5-(3,4-difluoro-phenyl)-benzofuran-2-ylmethoxycarbonylamino]-3-(4-fluoro-phenyl)-propionic acid]
97.1 to 100.8 °C | O=C(N[C@H](Cc1ccccc1)C(=O)O)OCc1cc2cc(-c3ccccc3F)ccc2o1 (hydrate or solvate) [Compound 98, (R)-2-[5-(2-fluoro-phenyl)-benzofuran-2-ylmethoxycarbonylamino]-3-phenyl-propionic acid]
